Laboratory results: PubChem BioAssay (NCI)
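Five concentrations, 48 hours, 96-well plates. At the GI50, growth is halved. TGI marks complete inhibition of growth.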

How the values were obtained:
Assay in all cases: NCI anticancer screen, dose series, 48 h
T-47D breast = system: T-47D breast
NCI-H460 lung = system: NCI-H460 lung
UACC-62 melanoma = system: UACC-62 melanoma
M14 melanoma = system: M14 melanoma
CAKI-1 renal = system: CAKI-1 renal
UACC-257 melanoma = system: UACC-257 melanoma
DU-145 prostate = system: DU-145 prostate
MCF7 breast = system: MCF7 breast
OVCAR-3 ovarian = system: OVCAR-3 ovarian
OVCAR-8 ovarian = system: OVCAR-8 ovarian

| SMILES | GI50 (T-47D breast) [µM] | TGI (T-47D breast) [µM] | GI50 (NCI-H460 lung) [µM] | TGI (NCI-H460 lung) [µM] | GI50 (UACC-62 melanoma) [µM] | TGI (UACC-62 melanoma) [µM] | GI50 (M14 melanoma) [µM] | TGI (M14 melanoma) [µM] | TGI (CAKI-1 renal) [µM] | TGI (UACC-257 melanoma) [µM] | GI50 (DU-145 prostate) [µM] | TGI (DU-145 prostate) [µM] | GI50 (MCF7 breast) [µM] | TGI (MCF7 breast) [µM] | GI50 (OVCAR-3 ovarian) [µM] | TGI (OVCAR-3 ovarian) [µM] | GI50 (OVCAR-8 ovarian) [µM] | TGI (OVCAR-8 ovarian) [µM] | GI50 (CAKI-1 renal) [µM] | GI50 (UACC-257 melanoma) [µM] |
| --- | --- | --- | --- | --- | --- | --- | --- | --- | --- | --- | --- | --- | --- | --- | --- | --- | --- | --- | --- | --- |
| S=C(c1ccc2c(c1)OCO2)N1CCN(c2cccc(Cl)c2)CC1 | 7.31 | > 100 | 0.387 | > 74.7 | 0.429 | > 100 | 0.472 | > 100 | > 100 | > 21.2 | 2.16 | > 55.1 | 0.471 | > 100 | 0.338 | 1.23 | 0.975 | 7.21 |  |  |
| O=C(NC1CCCCC1)NS(=O)(=O)c1ccc(-n2nc3c(c2-c2ccc(Cl)cc2)Cc2ccccc2-3)cc1 | 49.8 | > 100 | 19.8 | 46 | 10.9 | 24 | 13.7 | > 100 | 19.3 | 39.8 | 6.39 | 20.3 | 15.3 | 45.7 | 13.7 | 28.8 | 11.9 | 49.6 | 4.52 | 18.4 |
| N#Cc1c(N)nc(NCc2ccccc2)c(C#N)c1-c1ccccc1Cl | 67.3 | > 100 | 4.99 | 30.1 | 12.4 | 60.2 | 23.2 | > 100 | > 100 | > 100 | 21.5 | 88.6 | 20 | > 100 | 18.4 | 49.7 | 11.4 | > 100 | 14.6 | > 100 |
| CCN(CC)CCCCNc1ncc2cc(-c3cc(OC)cc(OC)c3)c(NC(=O)NC(C)(C)C)nc2n1 | 10.8 | 29.3 | 6.85 | 20.8 | 4.2 | 15.1 | 3.1 | 9.65 | 17 | 3.68 | 8.08 | 22.9 | 5.35 | 23.1 | 11.9 | 25 | 5.53 | 26.6 | 3.99 | 1.78 |
| C/C(=C\CCc1ccsc1)CC/C=C(\C)CCCN1CCC(CO)CC1 | 2.22 | 6.03 | 1.92 | 3.85 | 1.81 | 3.64 | 1.92 | 3.73 | 9.22 | 4.06 | 4.69 | 16.1 | 2.17 | 5.09 | 2.11 | 4.29 | 3.02 | 12.8 | 2.61 | 1.84 |
| O=C(NCCNc1nccc(-c2c(-c3ccc(F)cc3)nc3sccn23)n1)c1ccccc1 | 1.91 | 20.9 | 3.28 | 22.3 | 4.87 | 19.9 | 7.97 | 22.3 | 25.1 | 41.1 | 12.7 | > 100 | 1.43 | 17.3 | 16.2 | > 100 | 5.95 | > 100 | 2.48 | 14.3 |
| O=C(CN1C(=O)S/C(=C\C(Cl)=C\c2ccccc2)C1=O)NCCc1ccc(O)cc1 | 2.47 | 8.65 | 2 | 6.12 | 1.7 | 3.96 | 1.65 | 4.11 | 3.76 | 14.5 | 1.72 | 3.55 | 1.79 | 11.5 | 1.69 | 3.27 | 2.97 | > 100 | 1.78 | 2.58 |
| Cc1sc(NC2=NC(=O)/C(=C\c3ccccc3)S2)nc1-c1nc(NC2=NC(=O)/C(=C\c3ccccc3)S2)sc1C | 28.2 | > 50 | 15.5 | > 50 | 7.45 | 24 | 9.51 | 23.6 | 33.2 | > 38.7 | 0.382 | > 20.6 | 16.2 | > 50 | 9.84 | 29.1 | 16.5 | > 39.6 | 12.1 | 13.7 |
| C=C(C)[C@@H]1CC[C@]2(C(=O)O)CC[C@]3(C)[C@H](CC[C@@H]4[C@@]5(C)C/C(=C/c6ccc(OC)cc6)C(=O)C(C)(C)[C@@H]5CC[C@]43C)[C@@H]12 | 2.84 | 26.7 | 1.82 | 3.92 | 1.44 | 3.13 | 1.67 | 3.9 | 11.5 | 6.93 | 3.09 | 15.3 | 2.59 | 7.74 | 1.69 | 3.23 | 3.16 | 33.1 | 2.16 | 2.1 |
| COc1cccc(Cn2c(-c3nonc3NC(C)=O)nc3ccccc32)c1 | 6.17 | > 100 | 2.45 | > 100 | 3.37 | > 100 | 4.02 | > 100 | > 100 | 88.4 | 3.42 | 83.9 | 4.04 | > 100 | 6.56 | > 100 | 6.3 | > 100 | 2.05 | 5.71 |
| CNC(=O)NC(CCCCNC(=O)OCc1ccccc1)C(=O)OCc1ccccc1 (stereo not drawn) |  | 51.3 |  | > 100 |  | 33.1 |  | 43 | > 80.2 | 36.8 |  | > 100 |  | > 100 |  | 57.9 |  | > 87.5 |  |  |
